pIC50: −log10 of the molar value. Counter-ions that a name gives are not always drawn.
Assays:
Type in all cases: biochemical
[1] = molecular target: TNF-α converting enzyme (TACE) (Homo sapiens, UniProt P78536); experiment: Test procedure for measuring TACE inhibition (fluorescent peptidyl substrate)
Description: Using 96-well black microtiter plates, each well receives a solution composed of 10 μL TACE (final concentration 1 μg/mL), 70 μL Tris buffer, pH 7.4 containing 10% glycerol (final concentration 10 mM), and 10 μL of test compound solution in DMSO (final concentration 1 μM, DMSO concentration <1%) and incubated for 10 minutes at room temperature. The reaction is initiated by addition of a fluorescent peptidyl substrate (final concentration 100 μM to each well and then shaking on a shaker for 5 sec.
The reaction is read (excitation 340 nm, emission 420 nm) for 10 min. and the increase in fluorescence over time is plotted as a linear line. The slope of the line is calculated and represents the reaction rate.
The mean (x±sem) of the control rate is calculated and compared for statistical significance (p<0.05) with drug-treated rates using Dunnett's multiple comparison test.

[2] = molecular target: T1, MMP-1 (Homo sapiens, UniProt P03956); experiment: MMP-1 inhibition (thiopeptide or fluorescent peptide substrate); conditions: printed in the MMP1 IC50 column; concentration not given
T1 sequence (P03956 100-469): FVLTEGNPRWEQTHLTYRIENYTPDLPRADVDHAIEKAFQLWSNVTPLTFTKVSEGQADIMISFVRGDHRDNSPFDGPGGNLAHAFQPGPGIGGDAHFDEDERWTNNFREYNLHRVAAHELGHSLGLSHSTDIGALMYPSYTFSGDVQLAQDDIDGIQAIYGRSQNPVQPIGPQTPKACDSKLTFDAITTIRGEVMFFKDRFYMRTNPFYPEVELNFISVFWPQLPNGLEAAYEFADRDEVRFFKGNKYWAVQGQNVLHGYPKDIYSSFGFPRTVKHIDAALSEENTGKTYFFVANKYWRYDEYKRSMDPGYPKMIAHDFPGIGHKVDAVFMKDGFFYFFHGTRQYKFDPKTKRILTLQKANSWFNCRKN
Description: (§1) These standard pharmacological test procedures are based on the cleavage of a thiopeptide substrates such as Ac-Pro-Leu-Gly(2-mercapto-4-methyl-pentanoyl)-Leu-Gly-OEt by the matrix metalloproteinases MMP-1, MMP-13 (collagenases) or MMP-9 (gelatinase), which results in the release of a substrate product that reacts colorimetrically with DTNB (5,5′-dithiobis(2-nitro-benzoic acid)). The enzyme activity is measured by the rate of the color increase. The thiopeptide substrate is made up fresh as a 20 mM stock in 100% DMSO and the DTNB is dissolved in 100% DMSO as a 100 mM stock and stored in the dark at room temperature. Both the substrate and DTNB are diluted together to 1 mM with substrate buffer (50 mM HEPES pH 7.5, 5 mM CaCl2) before use. The stock of enzyme is diluted with buffer (50 mM HEPES, pH 7.5, 5 mM CaCl2, 0.02% Brij) to the desired final concentration. The buffer, enzyme, vehicle or inhibitor, and DTNB/substrate are added in this order to a 96 well plate (total reaction volume of 200 μl) and the increase in color is monitored spectrophotometrically for 5 minutes at 405 nm on a plate reader and the increase in color over time is plotted as a linear line.
(§2) Alternatively, a fluorescent peptide substrate is used. In this test procedure, the peptide substrate contains a fluorescent group and a quenching group. Upon cleavage of the substrate by an MMP, the fluorescence that is generated is quantitated on the fluorescence plate reader. The assay is run in HCBC assay buffer (50 mM HEPES, pH 7.0, 5 mM Ca^+2, 0.02% Brij, 0.5% Cysteine), with human recombinant MMP-1, MMP-9, or MMP-13. The substrate is dissolved in methanol and stored frozen in 1 mM aliquots. For the assay, substrate and enzymes are diluted in HCBC buffer to the desired concentrations. Compounds are added to the 96 well plate containing enzyme and the reaction is started by the addition of substrate. The reaction is read (excitation 340 nm, emission 444 nm) for 10 min. and the increase in fluorescence over time is plotted as a linear line.
(§3) For either the thiopeptide or fluorescent peptide test procedures, the slope of the line is calculated and represents the reaction rate. The linearity of the reaction rate is confirmed (r^2>0.85). The mean (x±sem) of the control rate is calculated and compared for statistical significance (p<0.05) with drug-treated rates using Dunnett's multiple comparison test. Dose-response relationships can be generated using multiple doses of drug and IC50 values with 95% CI are estimated using linear regression.

[3] = molecular target: MMP-9 (Homo sapiens, UniProt P14780); experiment: MMP-9 inhibition (thiopeptide or fluorescent peptide substrate); conditions: for MMP9 % inhibition: printed in the MMP9 IC50 column, concentration not given
Description: as §1, §2, §3

[4] = molecular target: MMP-13 (Homo sapiens, UniProt P45452); experiment: MMP-13 inhibition (thiopeptide or fluorescent peptide substrate); conditions: for MMP13 % inhibition: MMP13 IC50, concentration not given; for pIC50: read-out: MMP13 IC50
Description: The enzyme activity is measured by the rate of the color increase. The thiopeptide substrate is made up fresh as a 20 mM stock in 100% DMSO and the DTNB is dissolved in 100% DMSO as a 100 mM stock and stored in the dark at room temperature. Both the substrate and DTNB are diluted together to 1 mM with substrate buffer (50 mM HEPES pH 7.5, 5 mM CaCl2) before use. The stock of enzyme is diluted with buffer (50 mM HEPES, pH 7.5, 5 mM CaCl2, 0.02% Brij) to the desired final concentration.
as §2, with “substrate.” for “substrate. The reaction is read (excitation 340 nm, emission 444 nm) for 10 min. and the increase in fluorescence over time is plotted as a linear line.”
For either the thiopeptide or fluorescent peptide test procedures, the slope of the line is calculated and represents the reaction rate. […] The mean (x±sem) of the control rate is calculated and compared for statistical significance (p<0.05) with drug-treated rates using Dunnett's multiple comparison test.

MMP-9, sequence (P14780 94-707): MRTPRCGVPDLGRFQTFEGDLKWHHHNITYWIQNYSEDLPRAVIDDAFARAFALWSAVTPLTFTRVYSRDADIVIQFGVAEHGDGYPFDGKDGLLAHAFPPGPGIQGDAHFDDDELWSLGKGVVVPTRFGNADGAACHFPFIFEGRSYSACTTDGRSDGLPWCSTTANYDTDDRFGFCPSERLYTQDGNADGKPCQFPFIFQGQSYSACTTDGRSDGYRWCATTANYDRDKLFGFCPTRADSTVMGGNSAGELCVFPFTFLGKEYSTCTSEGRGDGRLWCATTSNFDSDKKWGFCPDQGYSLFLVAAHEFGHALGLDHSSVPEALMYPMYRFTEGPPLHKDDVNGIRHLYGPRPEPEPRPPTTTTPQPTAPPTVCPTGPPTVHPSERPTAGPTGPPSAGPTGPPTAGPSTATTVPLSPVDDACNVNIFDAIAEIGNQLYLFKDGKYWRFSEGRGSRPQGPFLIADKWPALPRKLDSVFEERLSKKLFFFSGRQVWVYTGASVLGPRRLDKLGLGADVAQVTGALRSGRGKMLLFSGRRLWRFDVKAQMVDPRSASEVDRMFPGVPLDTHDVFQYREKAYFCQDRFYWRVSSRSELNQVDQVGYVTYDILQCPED
TNF-α converting enzyme (TACE), sequence (P78536 215-824): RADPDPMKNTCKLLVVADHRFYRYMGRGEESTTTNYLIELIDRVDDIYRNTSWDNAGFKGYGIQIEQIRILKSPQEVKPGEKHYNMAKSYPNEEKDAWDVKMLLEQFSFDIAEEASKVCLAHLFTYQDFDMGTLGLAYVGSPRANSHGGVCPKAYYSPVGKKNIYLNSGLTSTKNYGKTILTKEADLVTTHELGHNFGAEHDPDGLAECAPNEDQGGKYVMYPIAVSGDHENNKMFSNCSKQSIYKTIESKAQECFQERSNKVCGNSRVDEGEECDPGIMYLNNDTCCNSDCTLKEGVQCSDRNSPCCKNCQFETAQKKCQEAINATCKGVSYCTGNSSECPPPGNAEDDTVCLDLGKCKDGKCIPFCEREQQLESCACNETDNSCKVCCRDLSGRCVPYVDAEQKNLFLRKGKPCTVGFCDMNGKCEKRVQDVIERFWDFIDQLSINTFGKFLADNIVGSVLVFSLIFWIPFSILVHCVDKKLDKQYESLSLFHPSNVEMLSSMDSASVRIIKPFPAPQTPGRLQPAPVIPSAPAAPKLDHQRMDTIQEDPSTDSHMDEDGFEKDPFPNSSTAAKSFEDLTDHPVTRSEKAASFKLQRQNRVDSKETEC

| pIC50 [1] | pIC50 [4] | Compound | other results |
| --- | --- | --- | --- |
| 6.41 | – | CCCCCC#CCOc1ccc(S(=O)(=O)C2(C(=O)NO)CCN(Cc3ccc(Br)cc3)CC2)cc1 [Example 6, 1-(4-Bromo-benzyl)-4-(4-oct-2-ynyloxy-benzenesulfonyl)-piperdine-4-carboxylic acid hydroxyamide] | MMP1 % inhibition [2]: 32.9%; MMP9 % inhibition [3]: 58.9%; MMP13 % inhibition [4]: 60% |
| – | 5.83 | CC#CCOc1ccc(SC2(C(=O)NO)CCN(Cc3ccc(Br)cc3)CC2)cc1 [Example 16, 1-(4-Bromo-benzyl)-4-(4-but-2-ynyloxy-phenylsulfanyl)-piperidine-4-carboxylic acid hydroxyamide] | inhibition at 1 µM [1]: 46%; pIC50 ([3]; read-out: MMP9 IC50): 5.69 |
| 7.49 | 5.76 | CC#CCOc1ccc(S(=O)(=O)CC2(C(=O)NO)CCN(C(=O)c3cccnc3)CC2)cc1 [Example 49, 4-({[4-(But-2-ynyloxy)phenyl]sulfonyl}methyl)-N-hydroxy-1-(pyridin-3-ylcarbonyl)piperidine-4-carboxamide triflouroacetic acid salt] | – |
| 7.38 | 5.43 | CC#CCOc1ccc(S(=O)(=O)CC2(C(=O)NO)CCN(C(=O)NCC)CC2)cc1 [Example 52, 4-({[4-(But-2-ynyloxy)phenyl]sulfonyl}methyl)-N-1-ethyl-N-4-hydroxypiperidine-1,4-dicarboxamide] | – |
| 7.49 | 6.98 | CC#CCOc1ccc(S(=O)(=O)CC2(C(=O)NO)CCN(C(=O)N(CC)CC)CC2)cc1 [Example 54, 4-({[4-(But-2-ynyloxy)phenyl]sulfonyl}methyl)-N-1-,N-1-diethyl-N-4-hydroxypiperidine-1,4-dicarboxamide] | – |
| – | 8.49 | CC#CCOc1ccc(S(=O)(=O)CC2(C(=O)NO)CCN(C(=O)N(C)c3ccccc3)CC2)cc1 [Example 56, 4-({[4-(But-2-ynyloxy)phenyl]sulfonyl}methyl)-N-4-hydroxy-N-1-methyl-N-1-phenylpiperidine-1,4-dicarboxamide] | – |
| 6.16 | 6.34 | CC#CCOc1ccc(S(=O)(=O)CC2(C(=O)NO)CCN(C(=O)OCCCCCCCC)CC2)cc1 [Example 57, Octyl-4-({[4-(but-2-ynyloxy)phenyl]sulfonyl}methyl)-4-[(hydroxyamino)-carbonyl]piperidine-1-carboxylate] | – |
| 7.68 | 6.75 | CC#CCOc1ccc(S(=O)(=O)CC2(C(=O)NO)CCN(C(=O)Oc3ccc(OC)cc3)CC2)cc1 [Example 58, 4-Methoxyphenyl-4-({[4-(but-2-ynyloxy)phenyl]sulfonyl}methyl)-4-[(hydroxyamino)carbonyl]piperidine-1-carboxylate] | – |
| 7.25 | 6.24 | CC#CCOc1ccc(S(=O)(=O)CC2(C(=O)NO)CCN(C(=O)CNCc3ccccc3)CC2)cc1 [Example 61, 1-[2-(Benzylamino)acetyl]-4-({[4-(but-2-ynyloxy)phenyl]sulfonyl}methyl)-N-hydroxypiperidine-4-carboxamide] | – |

Further lines, the molecule ahead of its results:

| Compound | pIC50 [1] | pIC50 [4] | other results |
| --- | --- | --- | --- |
| CC#CCOc1ccc(SC2(C(=O)NO)CCN(C(=O)OC(C)(C)C)CC2)cc1 [Example 14, 4-(4-But-2-ynyloxy-phenylsulfanyl)-4-hydroxycarbamoyl-piperidine-1-carboxylic acid tert-butyl ester] | – | – | inhibition at 1 µM [1]: 67%; MMP1 % inhibition [2]: 26%; MMP9 % inhibition [3]: 21%; MMP13 % inhibition [4]: 32% |
| CC#CCOc1ccc(S(=O)(=O)CC2(C(=O)NO)CCN(CC)CC2)cc1 [Example 46, 4-({[4-(But-2-ynyloxy)phenyl]sulfonyl}methyl)-1-ethyl-N-hydroxypiperidine-4-carboxamide triflouroacetic acid salt] | 6.98 | – | MMP13 % inhibition [4]: 55.6% |
| CC#CCOc1ccc(S(=O)(=O)CC2(C(=O)NO)CCN(Cc3ccc(Cl)s3)CC2)cc1 [Example 47, 4-({[4-(But-2-ynyloxy)phenyl]sulfonyl}methyl)-1-[(5-chlorothien-2-yl)methyl]-N-hydroxypiperidine-4-carboxamide triflouroacetic acid salt] | 6.64 | 6.56 | – |
| CC#CCOc1ccc(S(=O)(=O)CC2(C(=O)NO)CCN(C(=O)c3ccccc3)CC2)cc1 [Example 50, 1-Benzoyl-4-({[4-(but-2-ynyloxy)phenyl]sulfonyl}-methyl)-N-hydroxypiperidine-4-carboxamide] | – | 6.45 | – |
| CC#CCOc1ccc(S(=O)(=O)CC2(C(=O)NO)CCN(C(=O)Nc3ccccc3)CC2)cc1 [Example 53, 4-({[4-(But-2-ynyloxy)phenyl]sulfonyl}methyl)-N-4-hydroxy-N-1-phenyl-piperidine-1,4-dicarboxamide] | 7.68 | 5.93 | – |
| CC#CCOc1ccc(S(=O)(=O)CC2(C(=O)NO)CCN(C(=O)N3CCOCC3)CC2)cc1 [Example 55, 4-({[4-(But-2-ynyloxy)phenyl]sulfonyl}methyl)-N-hydroxy-1-(morpholin-4-ylcarbonyl)piperdine-4-carboxamide] | 7.15 | 6.22 | – |
| CC#CCOc1ccc(S(=O)(=O)CC2(C(=O)NO)CCN(S(=O)(=O)c3ccccc3)CC2)cc1 [Example 59, 4-({[4-(But-2-ynyloxy)phenyl]sulfonyl}methyl)-N-hydroxyl-(phenylsulfonyl)piperidine-4-carboxamide] | 7.27 | 7.95 | – |
| CC#CCOc1ccc(S(=O)(=O)CC2(C(=O)NO)CCN(S(=O)(=O)c3cn(C)cn3)CC2)cc1 [Example 60, 4-({[4-(But-2-ynyloxy)phenyl]sulfonyl}methyl)-N-hydroxy-1-1-[(1-methyl-1H-imidazol-4-yl)-sulfonyl]piperidine-4-carboxamide] | 7.42 | 8.10 | – |
| CC#CCOc1ccc(S(=O)(=O)CC2(C(=O)NO)CCN(C(=O)CN3CCN(C)CC3)CC2)cc1 [Example 63, 4-({[4-(But-2-ynyloxy)phenyl]sulfonyl}methyl)-N-hydroxy-1-[2-(4-methylpiperazin-1-yl)acetyl]piperidine-4-carboxamide] | 7.18 | 5.65 | – |

From patent publication US6753337B2, “Alkynyl containing hydroxamic acid compounds as matrix metalloproteinase/tace inhibitors” (Wyeth Holdings Corporation, priority 1999, dated 2004)
